Test results taken from patent US8435990B2, “Dihydropyrimidone amides as P2X7 modulators” (Roche Palo Alto LLC, priority 2009, dated 2013).

Target: T1, human P2X7 (Homo sapiens, UniProt Q99572)
T1 construct: 1321N1 cells stably expressing the full length human P2X7 gene (1321N1-hP2X7)
T1 sequence (Q99572 1-595): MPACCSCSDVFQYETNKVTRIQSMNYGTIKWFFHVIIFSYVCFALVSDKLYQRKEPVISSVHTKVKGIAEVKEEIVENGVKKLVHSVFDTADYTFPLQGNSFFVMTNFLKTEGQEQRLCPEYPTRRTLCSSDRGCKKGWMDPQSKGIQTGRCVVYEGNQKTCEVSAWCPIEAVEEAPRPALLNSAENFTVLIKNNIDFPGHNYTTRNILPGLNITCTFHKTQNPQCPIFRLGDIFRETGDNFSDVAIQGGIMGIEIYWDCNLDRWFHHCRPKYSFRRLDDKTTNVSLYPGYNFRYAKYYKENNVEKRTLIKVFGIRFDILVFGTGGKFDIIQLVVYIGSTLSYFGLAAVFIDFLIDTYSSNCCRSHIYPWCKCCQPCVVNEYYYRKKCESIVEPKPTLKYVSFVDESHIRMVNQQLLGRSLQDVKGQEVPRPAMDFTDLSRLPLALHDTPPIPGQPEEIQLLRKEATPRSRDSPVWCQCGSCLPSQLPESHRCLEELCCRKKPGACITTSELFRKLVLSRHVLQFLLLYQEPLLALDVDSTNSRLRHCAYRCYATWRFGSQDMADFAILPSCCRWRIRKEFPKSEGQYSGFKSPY
Assay: P2X7 modulator pIC50 of Table 1 (assay not given; Intracellular Calcium Flux (FLIPR) Assay assumed)
Format: cell-based
Method in brief: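 1321N1 cells expressing human P2X7, fluo-3 loaded, pre-equilibrated 20 min at RT with antagonist; 100 μM BzATP agonist added and calcium fluorescence recorded 5 min on FLIPR. BzATP-evoked maximum normalised to 5 μM ionomycin response. HEK293 rat P2X7 cells used 5 μM BzATP.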

SMILES: COC[C@H](O)Cn1c(=O)cnn(-c2ccc(C)c(NC(=O)C3=CN(C)C(=O)N[C@H]3c3ccc(F)cc3)c2)c1=O [Compound 25, (S)-4-(4-Fluoro-phenyl)-1-methyl-2-oxo-1,2,3,4-tetrahydro-pyrimidine-5-carboxylic acid {5-[4-((R)-2-hydroxy-3-methoxy-propyl)-3,5-dioxo-4,5-dihydro-3H-[1,2,4]triazin-2-yl]-2-methyl-phenyl}-amide]
- IC50: 91.2 nM

SMILES: Cc1ccc(-n2cccc(C)c2=O)cc1NC(=O)C1=CN(C)C(=O)N[C@H]1c1ccc(F)cc1 [Compound 50, (S)-4-(4-Fluoro-phenyl)-1-methyl-2-oxo-1,2,3,4-tetrahydro-pyrimidine-5-carboxylic acid [2-methyl-5-(3-methyl-2-oxo-2H-pyridin-1-yl)-phenyl]-amide]
- IC50: 55 nM

SMILES: COC[C@H](O)Cn1nc(-c2ccc(C)c(NC(=O)C3=CN(C)C(=O)N[C@H]3c3ccc(F)cc3)c2)cc1C [Compound 24, (S)-4-(4-Fluoro-phenyl)-1-methyl-2-oxo-1,2,3,4-tetrahydro-pyrimidine-5-carboxylic acid {5-[1-((R)-2-hydroxy-3-methoxy-propyl)-5-methyl-1H-pyrazol-3-yl]-2-methyl-phenyl}-amide]
- IC50: 50.7 nM

SMILES: CN1C=C(C(=O)Nc2cc(-n3ncccc3=O)ccc2F)[C@H](c2ccc(F)cc2)NC1=O [Compound 74, (S)-4-(4-Fluoro-phenyl)-1-methyl-2-oxo-1,2,3,4-tetrahydro-pyrimidine-5-carboxylic acid [2-fluoro-5-(6-oxo-6H-pyridazin-1-yl)-phenyl]-amide]
- IC50: 101 nM

SMILES: Cc1ccc(-n2ncc(=O)n(C)c2=O)cc1NC(=O)C1=CN(C)C(=O)N[C@H]1c1ccc(F)cc1 [Compound 35, (S)-4-(4-Fluoro-phenyl)-1-methyl-2-oxo-1,2,3,4-tetrahydro-pyrimidine-5-carboxylic acid [2-methyl-5-(4-methyl-3,5-dioxo-4,5-dihydro-3H-[1,2,4]triazin-2-yl)-phenyl]-amide]
- IC50: 106 nM
